Data as given in patent US8716302B2, “Compounds for inducing cellular apoptosis” (Queen Mary & Westfield College, priority 2009, dated 2014).
“And” between values parts separate entries of the source, which are not always exact repeats. Identical values can stand only once. Like-named read-outs stand apart in the source and are kept apart here.

Key:
[1] = system: DoHH2 (lymphoma) cell line; test: DiOC6(3) flow evaluation of cell viability and apoptosis, DoHH2 (lymphoma) cell line; format: cell-based, human; details: for Percentage Cell Viability: DoHH2 cells, 50 μM; for cytotoxicity at 50 µM / viability at 50 µM: Homo sapiens, DOHH-2, DoHH2 cells
Method: DiOC6(3) flow evaluation of cell viability and levels of apoptosis was carried out at 10 and 50 μm concentrations. For each entry in FIG. 1, % apoptosis is on the left and % viable is on the right.
Measurement of Mitochondrial Membrane Potential depolarisation and mitochondrial permeability transition (MPT). Cells were incubated for 20 minutes at 37° C. in the dark with the cationic lipophillic (amphipathic) probe 3,3′-dihexyloxacarbocyanine iodide, DiOC6(3) (80 nM), then counter stained for 10 minutes with propidium iodide (20 μg/ml). DiOC6(3) is sequestered within the mitochondrial matrix due to the inner membrane potential (Δψm), according to the Nernst equation, dissipation leading to a reduction in mitochondrial retention and decreased cellular DiOC6(3) fluorescence. Collapse of Δψm was prevented by incubating cells for 30 minutes with 50 μM bongkrekic acid. Events with increased propidium iodide fluorescence were subtracted, by gating, from the DiOC6(3) histograms to eliminate dead cells, with loss of plasma membrane integrity. Dose-response curves used the calculated proportion of DiOC6(3)low, cells as the dependent variable on the ordinate. To measure MPT directly, cells were incubated with 1 μM calcein AM for 30 minutes, followed by 1 mM […] cobalt. Cobalt quenches calcein fluorescence, but cannot traverse an intact inner mitochondrial membrane to enter the mitochondrial matrix, to which calcein equilibrates. Opening of the PTPC allows cobalt to enter, reducing calcein fluorescence.
The Lymphoma cell line (DoHH2) was treated with PK11195 and various compounds of the invention at doses of 10 and 50 μmol concentrations. Levels of cell viability and apoptosis were measured by DiOC6 flow evaluation. DiOC6 is a fluorescent dye which acts as a surrogate marker of mitochondrial depolarisation. Uptake of DiOC6 and consequent fluorescence is a measure of opening of the permeability transition pore complex (PTPC).
The following tables set out % viability and % apoptosis results seen for treatment of DoHH2 cells with certain compounds of the invention at a dosage of 50 μM, in comparison with untreated cells. The assay procedure used was as described above in respect of “Treatment of DoHH 2 (Lymphoma) Cell Line”.

[2] = system: DoHH2 cells; test: Superoxide purging with MnTBAP, apoptosis in DoHH2 cells; format: cell-based, human; details: with and without ROS scavenger MnTBAP
Method: For each entry in FIG. 2, DAPI viable is on the left and DAPI non viable is on the right.
O^2-• was detected by incubating cells for 15 minutes in 5 μM dihydroethidium, which is oxidized to ethidium. To test the effect of O^2-• […] on O^2-• generation, cells were treated with 100 μM MnTBAP for 45 minutes. Hydrogen peroxide was detected by loading cells for 30 minutes with 5 μM CM-H2DCFDA, and its formation inhibited by preincubation with 500 U/ml catalase for 30 minutes. Dose-response curves for CM-H2DCFDA used the calculated proportion of CM-H2DCFDAhigh cells as the dependent variable.
DoHH2 cells were exposed to AAW-001, AAW-0014 and PK11195 in the presence and absence of the mitochondrial reactive oxygen species (ROS) scavenger MnTBAP.

[3] = system: human lymphoma DoHH2 cell line xenograft; test: DoHH2 xenograft NOD/SCID mice; format: in vivo; details: for mice alive at 10 weeks: cohorts of ten mice
Method: NOD/SCID mice xenografted with the human lymphoma DoHH2 cell line were treated two weeks post inoculation with the human B cell lymphoma cell line DoHH2. There were three cohorts of ten mice. For two cohorts, treatment consisted of 50 microgram intraperitoneal (IP) doses twice weekly for three weeks of PK11195 or AAW-0014, respectively. The third cohort was treated with 200 microlitres of saline twice weekly over a 3 week period. The mice were then observed for up to six weeks. All of the saline treated mice were dead due to disease at 10 weeks. […] All of the AAW-0014 treated mice were alive at 10 weeks showing less than 20% splenic involvement, including 2 mice with no detectable disease.

[4] = average of repeats, read-out: Percentage Cell Apoptosis, Averages
[5] = average of repeats, read-out: Percentage Cell Viability, Averages
[6] = individual repeats, read-out: Percentage Cell Apoptosis
[7] = 50 microgram IP twice weekly for three weeks
[8] = at 10 weeks, 50 microgram IP twice weekly for three weeks
[9] = individual repeats, read-out: Percentage Cell Viability

Structure (SMILES)	cytotoxicity at 50 µM [1, 4] [%]	viability at 50 µM [1, 5] [%]	cytotoxicity at 50 µM [1, 6] [%]	viability at 50 µM [1, 9] [%]	further results
CC(C)C(=O)Nc1cc2c(c(-c3ccccc3Cl)c1)CCN(C(=O)C(F)(F)F)C2 [CO-AAW0001, N-[5-(2-chloro-phenyl)-2-(2,2,2-trifluoro-acetyl)-1,2,3,4-tetrahydro-isoquinolin-7-yl]-isobutyramide]	52.8	59.7			Percentage Cell Viability ([1]; individual repeats, listed as 1, 50 µM): 73.8% and 67.7% and 47.9% and 62.5% and 48.0% and 52.8% and 52.9% and 48.5% and 68.4% and 65.4%
CC(C)C(=O)Nc1cc2ccccc2c(-c2ccccc2Cl)n1 [CO-AAW0007]	26.1	76.1			Percentage Cell Viability ([1]; individual repeats, listed as 7, 50 µM): 63.9% and 88.2%
CCC(C)C(=O)Nc1cc2ccccc2c(-c2ccccc2Cl)n1 (centres unmarked) [CO-AAW0008]	39.2	67.9	48.8		Percentage Cell Viability ([1]; individual repeats, listed as 8, 50 µM): 54.1% and 81.7%
CC(C)NC(=O)c1cc2ccccc2c(-c2ccccc2Cl)n1 [CO-AAW0009]	32.4	69.9			Percentage Cell Viability ([1]; individual repeats, listed as 9, 50 µM): 48.8% and 90.5%
CCCCC(=O)Nc1nc2c(c(-c3ccccc3Cl)n1)CN(Cc1ccccc1)CC2 [CO-AAW00014, pentanoic acid [6-benzyl-4-(2-chloro-phenyl)-5,6,7,8-[4,3-d]pyrimidin-2-yl]-amide]	65.5	53.1			Percentage Cell Viability ([1]; individual repeats, listed as 14, 50 µM): 68.8% and 42.3% and 39.4% and 65.8% and 51.8% and 54.3% and 49.6%; ability to induce apoptosis in the presence of MnTBAP [2]: inhibited by MnTBAP; drug related toxicities [3, 7]: No major drug related toxicities were observed; splenic involvement [3, 8]: less than 20%; mice with no detectable disease ([3]; at 10 weeks, of ten mice): 2; mice alive at 10 weeks [3, 7]: All
O=C(Nc1nc2c(c(-c3ccccc3Cl)n1)CN(Cc1ccccc1)CC2)c1cccc(Cl)c1Cl [CO-AAW00016, N-[6-benzyl-4-(2-chlorophenyl)-5H,6H,7H,8H-pyrido[4,3-d]pyrimidin-2-yl]-2,3-dichlorobenzamide]	33.5	77.5	33.4	78.5	Percentage Cell Viability ([1]; individual repeats, listed as 16, 50 µM): 76.5%
CCCC(=O)N1CCc2c(cc([N+](=O)[O-])cc2-c2ccccc2Cl)C1 [CO-AAW00017, 1-[5-(2-chlorophenyl)-7-nitro-1,2,3,4-tetrahydroisoquinolin-2-yl]butan-1-one]	49.2	71.3	43	74.2	Percentage Cell Viability ([1]; individual repeats, listed as 17, 50 µM): 68.4%
CC(C)NC(=O)c1cc2ccccc2c(-c2c(Cl)cccc2Cl)n1 [CO-AAW00018]	24.1	82	25.6	84.8	Percentage Cell Viability ([1]; individual repeats, listed as 18, 50 µM): 79.2%
CNC(=O)c1cc2ccccc2c(-c2ccccc2Cl)n1 [CO-AAW00020]	17.3	75.7	17.1	72.7	Percentage Cell Viability ([1]; individual repeats, listed as 20, 50 µM): 78.7%
CCCCNC(=O)c1cc2ccccc2c(-c2ccccc2Cl)n1 [CO-AAW00022]	65.4	28.4	62.9	37.4	Percentage Cell Viability ([1]; individual repeats, listed as 22, 50 µM): 19.4%
CC(C)C(=O)Nc1cc2c(c(-c3ccccc3Cl)c1)CCN(C(=O)c1ccccc1)C2 [CO-AAW00025, N-[2-Benzoyl-5-(2-chloro-phenyl)-1,2,3,4-tetrahydroisoquinolin-7-yl]2-methylpropanamide]	15.4	67.6	19.7		Percentage Cell Viability ([1]; individual repeats, listed as 25, 50 µM): 56.3% and 78.8%
CCCCC(=O)Nc1cc2c(c(-c3ccccc3Cl)c1)CCN(C(=O)C(F)(F)F)C2 [CO-AAW00030, pentanoic acid [5-(2-chlorophenyl)-2-(2,2,2-trifluoro-acetyl)-1,2,3,4-tetrahydro-isoquinolin-7-yl]amide]	61.2	64.3	61.2	64.3	
CCC(C)N(C)C(=O)c1cc2ccccc2c(-c2ccccc2Cl)n1 (centres unmarked) [PK11195, 1-(2-chlorophenyl)-N-methyl-N-(1-methylpropyl)-3-isoquinolinecarboxamide, reference compound]					disease on splenic assessment on culling [3, 8]: moderate levels of disease; mice alive at 10 weeks [3, 7]: Five of the ten
